Like-named read-outs stand apart in the source and are kept apart here.
Tests used:
[1] = molecular target: T1, LOXL2 (Homo sapiens, UniProt Q9Y4K0); test: LOX isoform activity assay (ROS Glo), LOXL2; format: biochemical
T1 construct: purchased R&D Systems/Bio-techne
T1 sequence (Q9Y4K0 26-774): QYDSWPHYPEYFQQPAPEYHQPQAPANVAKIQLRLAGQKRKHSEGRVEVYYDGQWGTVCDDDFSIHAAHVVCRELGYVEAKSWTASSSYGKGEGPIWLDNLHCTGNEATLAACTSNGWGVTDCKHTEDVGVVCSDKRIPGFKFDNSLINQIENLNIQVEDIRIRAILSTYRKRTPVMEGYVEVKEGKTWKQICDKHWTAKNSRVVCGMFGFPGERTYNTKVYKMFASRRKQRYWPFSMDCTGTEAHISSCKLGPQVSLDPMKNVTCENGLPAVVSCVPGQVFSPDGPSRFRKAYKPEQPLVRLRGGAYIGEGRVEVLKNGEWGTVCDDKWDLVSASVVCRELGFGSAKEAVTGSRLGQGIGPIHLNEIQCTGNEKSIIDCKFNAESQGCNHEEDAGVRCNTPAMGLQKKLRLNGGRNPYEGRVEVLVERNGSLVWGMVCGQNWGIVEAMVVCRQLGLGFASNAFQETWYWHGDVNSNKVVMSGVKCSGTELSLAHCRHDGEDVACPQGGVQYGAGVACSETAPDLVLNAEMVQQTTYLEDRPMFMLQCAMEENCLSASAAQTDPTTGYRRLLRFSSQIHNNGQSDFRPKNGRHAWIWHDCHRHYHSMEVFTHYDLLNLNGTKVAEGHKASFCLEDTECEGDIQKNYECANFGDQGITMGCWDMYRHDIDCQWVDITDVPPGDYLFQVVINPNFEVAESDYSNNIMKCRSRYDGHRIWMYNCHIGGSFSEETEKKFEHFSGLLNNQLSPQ
Protocol: (§1) LOX was extracted from pig skin by previously described methods (Shackleton and Hulmes, 1990). LOXL2 and LOXL3 were obtained from R&D Systems/Bio-techne. The Promega ROS Glo assay kit (G8821) was used to assess enzyme activity. Overall, test compound was added to either 384 well assay plates (Greiner) using a Labcyte Echo™ Acoustic Handler or to 96 well plates for a final assay concentration of 100, 30, 10, 3, 1, 0.3, 0.1, 0.03, 0.01 and 0.003 μM final assay concentration. Enzymes were diluted according to specific pre-determined activity in assay buffer (100 mM CHES, pH 9, 0.05% (w/v) pluronic F-127, 0.5% (w/v) BSA, 1 mM MgCl2, 1 M urea, 100 mM NaCl) and added to the plate. For LOXL2, the mixture was incubated for 20 min, 1 h or 20 h; for LOX and LOXL3, incubation time was 1 h. Cadaverine and H2O2 substrate were then added to each well (final assay concentration 19.56 mM and 25 μM respectively) and the plates were incubated for 1.5 h (for LOX) or 1 h (for LOXL2 and LOXL3) at room temperature. Finally, luciferin detection reagent was added and plates were incubated for 20 min at room temperature, protected from light. Luminescence was measured using a BMG LABTECH PHERAstar FS reader and resulting IC50 values were calculated using GraphPad Prism software.
In another setting, LOXL2 enzyme was diluted according to specific pre-determined activity in assay buffer (100 mM CHES, pH 9, 0.05% (w/v) pluronic F-127, 0.5% (w/v) BSA, 1 mM MgCl2, 1 M urea, 100 mM NaCl). Overall, 0.5 μl test compound was added to 40 μl assay buffer+LOXL2 at 100, 30, 10, 3, 1, 0.3, 0.1, 0.03, 0.01 and 0.003 μM (final concentration) in a 96-well white polystyrene, flat bottom plates (Fisher) and incubated for the indicated time at room temperature. 10 μl of assay buffer containing 97.8 mM cadaverine and 125 μM H2O2 substrate (final assay concentration 19.56 mM and 25 μM respectively) were added to each well and plates were incubated for 1 h at room temperature. Finally, 50 μl per well luciferin detection reagent was added and plates were incubated for 20 min at room temperature, protected from light. Luminescence was measured with an integration time of 500 ms per well using a SpectaMax M5 plate reader and resulting IC50 values were calculated using GraphPad Prism software.

[2] = molecular target: T2, LOX (Sus scrofa, UniProt P45845); test: LOX isoform activity assay (ROS Glo), LOX; format: biochemical, pig; details: 1 h incubation with enzyme
T2 construct: LOX was extracted from pig skin by previously described methods; from tissue; host or cells: pig skin
T2 sequence (P45845 1-249): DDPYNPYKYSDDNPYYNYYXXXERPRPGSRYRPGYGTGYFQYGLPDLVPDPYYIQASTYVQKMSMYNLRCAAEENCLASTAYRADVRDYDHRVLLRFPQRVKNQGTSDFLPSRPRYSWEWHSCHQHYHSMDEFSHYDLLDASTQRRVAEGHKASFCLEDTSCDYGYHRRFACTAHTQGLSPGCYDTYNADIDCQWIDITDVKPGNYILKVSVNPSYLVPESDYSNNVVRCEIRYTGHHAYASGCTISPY
Protocol: as §1

[3] = molecular target: T3, monoamine oxidase B (MAO-B) (Homo sapiens, UniProt P27338); test: Amine oxidase activity assay (MAO-Glo), MAO-B; format: biochemical
T3 construct: purchased Sigma M7441
T3 sequence (P27338 1-520): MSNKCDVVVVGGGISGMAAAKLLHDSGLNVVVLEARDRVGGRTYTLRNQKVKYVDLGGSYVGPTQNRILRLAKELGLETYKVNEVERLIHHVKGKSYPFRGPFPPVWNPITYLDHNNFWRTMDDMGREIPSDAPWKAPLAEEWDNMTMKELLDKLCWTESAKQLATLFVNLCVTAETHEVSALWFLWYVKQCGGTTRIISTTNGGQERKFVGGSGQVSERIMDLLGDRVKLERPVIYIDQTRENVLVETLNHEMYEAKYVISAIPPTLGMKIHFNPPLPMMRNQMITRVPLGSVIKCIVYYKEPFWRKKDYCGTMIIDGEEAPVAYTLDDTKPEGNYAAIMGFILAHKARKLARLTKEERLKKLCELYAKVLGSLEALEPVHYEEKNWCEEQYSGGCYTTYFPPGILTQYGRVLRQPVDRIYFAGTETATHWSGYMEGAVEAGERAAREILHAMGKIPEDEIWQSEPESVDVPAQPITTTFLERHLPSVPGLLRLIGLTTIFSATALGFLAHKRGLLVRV
Protocol: (§2) The Promega MAO-Glo assay kit (V1402) was used to assess monoamine oxidase A (MAO-A) and monoamine oxidase B (MAO-B) activity. MAO substrate was prepared at 80 μM with the specific MAO-A/B reaction buffer. Overall, 0.5 μl test compound was added to 25 μl MAO substrate at 100, 30, 10, 3, 1, 0.3, 0.1, 0.03, 0.01 and 0.003 μM (final concentration) in a 96-well white, flat bottom plate. Overall, 25 μl of 1:520 dilution of MAO-A enzyme (Promega, V1452) or 25 μl of 1:52 dilution of MAO-B enzyme (Sigma, M7441) in specific MAO-A/B reaction buffer was added to each well (enzyme prepared at 2×final concentration) and plates were incubated for 1 h at room temperature. Finally, 50 μl per well luciferin detection reagent was added and plates were incubated for 20 min at room temperature, protected from light. Luminescence was measured with an integration time of 500 ms per well using a SpectaMax M5 plate reader and resulting IC50 values were calculated using GraphPad Prism software.
(§3) In another setting, the DAO and MAO assays were performed in 384-well plates (Greiner) and test compound was added using a Labcyte Echo™ Acoustic Handler for the same final concentrations as in the 96-well setting. Luminescence was measured with BMG LABTECH PHERAstar FS plate reader.

[4] = molecular target: T4, monoamine oxidase A (MAO-A) (Homo sapiens, UniProt P21397); test: Amine oxidase activity assay (MAO-Glo), MAO-A; format: biochemical
T4 construct: purchased Promega V1452
T4 sequence (P21397 1-527): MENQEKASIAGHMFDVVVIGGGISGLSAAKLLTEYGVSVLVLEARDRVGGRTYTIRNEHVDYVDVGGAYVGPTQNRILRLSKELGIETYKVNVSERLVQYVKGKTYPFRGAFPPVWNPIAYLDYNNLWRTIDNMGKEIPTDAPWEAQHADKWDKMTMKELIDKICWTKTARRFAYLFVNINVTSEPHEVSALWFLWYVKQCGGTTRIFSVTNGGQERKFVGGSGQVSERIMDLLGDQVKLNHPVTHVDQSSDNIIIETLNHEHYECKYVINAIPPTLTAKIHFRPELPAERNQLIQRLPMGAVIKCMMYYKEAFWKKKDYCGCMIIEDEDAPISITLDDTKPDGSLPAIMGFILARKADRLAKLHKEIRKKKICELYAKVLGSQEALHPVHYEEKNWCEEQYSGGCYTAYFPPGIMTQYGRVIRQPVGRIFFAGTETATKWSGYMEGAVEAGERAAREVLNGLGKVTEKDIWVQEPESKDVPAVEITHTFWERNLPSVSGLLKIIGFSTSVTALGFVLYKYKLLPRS
Protocol: as §2, §3

[5] = 20 hr incubation with enzyme; read-out: LOXL2 IC50 c) 20 hr
[6] = 20 min incubation with enzyme; read-out: LOXL2 IC50 a) 20 min
[7] = 1 hr incubation with enzyme; read-out: LOXL2 IC50 b) 1 hr

Row | Structure (SMILES) | IC50 [1, 5] | IC50 [2] | also measured
1 | CCOc1ccc(N2C[C@H]3CN(CCCS(=O)(=O)CCN)C[C@@H]2C(C)(C)C3)cc1 [Example 6, 2-((3-((1R,5S)-6-(4-ethoxyphenyl)-9,9-dimethyl-3,6-diazabicyclo[3.2.2]nonan-3-yl)propyl)sulfonyl)ethan-1-amine] | 2500 nM | 58 µM | 
2 | CC1(C)C[C@@H]2CN(CCS(=O)(=O)CCN)C[C@H]1N(c1ccc(N3CCS(=O)(=O)CC3)cc1)C2 [Example 5, 4-(4-((1R,5S)-3-(2-((2-aminoethyl)sulfonyl)ethyl)-9,9-dimethyl-3,6-diazabicyclo[3.2.2]nonan-6-yl)phenyl)thiomorpholine 1,1-dioxide] | 480 nM |  | 
3 | CC1(C)C[C@@H]2CN(C(=O)NCCO)C[C@H]1N(c1ccc(OCCCS(=O)(=O)CCN)cc1)C2 [Example 34, (1S,5S)-6-(4-(3-((2-aminoethyl)sulfonyl)propoxy)phenyl)-N-(2-hydroxyethyl)-9,9-dimethyl-3,6-diazabicyclo[3.2.2]nonane-3-carboxamide] | 9300 nM |  | 
4 | CCOc1ccc(N2C[C@H]3CN(C(=O)c4ccc(S(=O)(=O)CCN)cc4)C[C@@H]2C(C)(C)C3)cc1 [Example 31, (4-((2-aminoethyl)sulfonyl)phenyl)((1S,5S)-6-(4-ethoxyphenyl)-9,9-dimethyl-3,6-diazabicyclo[3.2.2]nonan-3-yl)methanone] |  | 96 µM | IC50 [1, 6]: 16000 nM
5 | CC1(C)C[C@@H]2CN(C(=O)C(F)S(=O)(=O)CCN)C[C@H]1N(c1ccc(N3CCS(=O)(=O)CC3)cc1)C2 (stereo partly drawn) [Example 17, 2-((2-aminoethyl)-sulfonyl)-1-((1S,5S)-6-(4-(1,1-dioxido-thiomorpholino)-phenyl)-9,9-dimethyl-3,6-diaza-bicyclo[3.2.2]nonan-3-yl)-2-fluoroethan-1-one] |  |  | IC50 [1, 7]: 110 nM
6 | CC1(C)C[C@@H]2CN(C(=O)CS(=O)(=O)CCN)C[C@H]1N(c1ccc(N3CCS(=O)(=O)CC3)cc1)C2 [Example 10, 2-((2-aminoethyl)-sulfonyl)-1-((1S,5S)-6-(4-(1,1-dioxido-thiomorpholino)-phenyl)-9,9-dimethyl-3,6-diaza-bicyclo[3.2.2]nonan-3-yl)ethan-1-one] | 940 nM |  | 
7 | CCOc1ccc(N2C[C@H]3CN(C(=O)C(C)S(=O)(=O)CCN)C[C@@H]2C(C)(C)C3)cc1 (mixture of isomers) [Example 39, 2-((2-aminoethyl)sulfonyl)-1-((1S,5S)-6-(4-ethoxyphenyl)-9,9-dimethyl-3,6-diazabicyclo[3.2.2]nonan-3-yl)propan-1-one] |  | 10 µM | IC50 [1, 7]: 410 nM
8 | NCCS(=O)(=O)CCN1CCCN(c2ccc(N3CCS(=O)(=O)CC3)cc2)CC1 [Example 3, 4-(4-(4-(2-((2-aminoethyl)sulfonyl)ethyl)-1,4-diazepan-1-yl)phenyl) thiomorpholine-1,1-dioxide] |  |  | IC50 [1, 6]: 8100 nM; IC50 [3]: > 100 µM; IC50 [4]: > 100 µM
9 | CCNC(=O)N1C[C@@H]2CN(c3ccc(OCCCS(=O)(=O)CCN)cc3)[C@H](C1)C(C)(C)C2 [Example 36, (1S,5S)-6-(4-(3-((2-aminoethyl)sulfonyl)propoxy)phenyl)-N-ethyl-9,9-dimethyl-3,6-diazabicyclo[3.2.2]nonane-3-carboxamide] | 5100 nM | 4.5 µM | 
10 | CCOc1ccc(N2C[C@@H]3CC[C@H]2CN(C(=O)CS(=O)(=O)CCN)C3)cc1 [Example 9, 2-((2-aminoethyl)-sulfonyl)-1-((1S,5S)-6-(4-ethoxyphenyl)-3,6-diazabicyclo-[3.2.2]nonan-3-yl)-ethan-1-one] | 340 nM | > 100 µM | 
11 | CC1(C)C[C@@H]2CN(C(=O)N3CCS(=O)(=O)CC3)C[C@H]1N(c1ccc(OCCCS(=O)(=O)CCN)cc1)C2 [Example 35, ((1S,5S)-6-(4-(3-((2-aminoethyl)sulfonyl)-propoxy)phenyl)-9,9-dimethyl-3,6-diaza-bicyclo[3.2.2]nonan-3-yl)(1,1-dioxido-thiomorpholino) methanone] | 6700 nM |  | 
